From publication PMC8453745, “Human Mass Balance and Metabolite Profiling of [^14C]‐Pamiparib, a Poly (ADP‐Ribose) Polymerase Inhibitor, in Patients With Advanced Cancer” (Clinical Pharmacology in Drug Development, 2021)
“Also recorded” adds a separate entry of the source.

Experiments:
[1] = total radioactivity in plasma of patients (LSC); format: in vivo, human
Source text: (§1) Part 1 of the study included a screening phase of up to 28 days prior to drug administration to assess eligibility. Patients were admitted to the clinical research unit (CRU) at Royal Liverpool University Hospital (Liverpool, UK)/Clatterbridge Cancer Centre NHS Foundation Trust (Bebington, Wirral, UK) on day −1 and received a single dose of 60‐mg/100 μCi [^14C]‐pamiparib orally the morning of day 1. Patients remained in the CRU until completion of assessments on day 7, when discharge criteria of ≈90% of the radioactive dose being recovered or <1% of the radioactive dose being recovered in urine and feces for 2 consecutive 24‐hour collection intervals were met. If discharge criteria were not met by day 7, patients collected 24‐hour excreta samples up to day 14 on an outpatient basis. Part 2 of the study, evaluating the safety/tolerability and antitumor activity of 60 mg twice‐daily pamiparib in patients with advanced and/or metastatic solid tumors, is ongoing and is not included in this report.
(§2) Patients fasted overnight and 2 hours after oral administration of a single 60‐mg dose containing ≈100 μCi (3.7‐3.9 MBq) of [^14C]‐pamiparib with ≈240 mL of room‐temperature water or juice (orange or grape). The residual radioactivity present in each vial postdose was corrected from the dose. The radioactive dose of 100 μCi of [^14C]‐pamiparib provided minimum risk to patients according to the dosimetry calculation from a quantitative whole‐body autoradiography study in male and female Long Evans rats; the dose also provided sufficient signal for total radioactivity counting and quantitative radioprofiling in blood, plasma, and excreta (data on file). […]
Total radioactivity was analyzed at Covance Laboratories (Harrogate, North Yorkshire, UK), and metabolite profiling was conducted at Covance Laboratories (Madison, Wisconsin). Determination of pamiparib concentrations in plasma and total radioactivity in plasma and whole blood was performed predose and 0.25, 0.5, 1, 1.5, 2, 2.5, 3, 6, 12, 24, 48, 72, 96, 120, and 144 hours postdose. Pamiparib concentrations in plasma and urine were determined at Covance Laboratories (Salt Lake City, Utah) with validated liquid chromatography‐tandem mass spectrometry (LC‐MS/MS) methods.
Total radioactivity concentrations of [^14C]‐pamiparib in whole blood, plasma, urine, and feces were determined by liquid scintillation counting (LSC). Radioactivity in each sample was measured for 5 minutes using a Packard Tri‐Carb liquid scintillation counter model 2100TR, 2900TR, or 3100TR (Canberra Packard, Pangbourne, Berks, Australia) with the facilities for computing quench‐corrected disintegrations per minute. […] Quantitation of the metabolites present in plasma, urine, and feces was based on the profiles of radioactivity. […]

[2] = total radioactivity in whole blood of patients (LSC); format: in vivo, human; conditions: n = 4
Source text: as §1, with “If discharge criteria were not met by day 7, patients collected 24‐hour excreta samples up to day 14 on an outpatient basis. Part 2 of the study, evaluating the safety/tolerability and antitumor activity of 60 mg twice‐daily pamiparib in patients with advanced and/or metastatic solid tumors, is ongoing and is not included in this report.” left out
as §2

[3] = mass balance: recovery of radioactivity in urine and feces; format: in vivo, human
Source text: as §1
Total radioactivity concentrations of [^14C]‐pamiparib in whole blood, plasma, urine, and feces were determined by liquid scintillation counting (LSC). Radioactivity in each sample was measured for 5 minutes using a Packard Tri‐Carb liquid scintillation counter model 2100TR, 2900TR, or 3100TR (Canberra Packard, Pangbourne, Berks, Australia) with the facilities for computing quench‐corrected disintegrations per minute. Metabolite identification in plasma, urine, and feces was conducted by LC‐MS. Quantitation of the metabolites present in plasma, urine, and feces was based on the profiles of radioactivity. The limit of quantitation for radioactivity in plasma, urine, and feces was set at 1% of each chromatographic analysis (run) and 10 counts per minute (cpm) peak height; therefore, radioactive peaks that were <1% of the total run or <10 cpm peak height were reported as not detected. […]
Each aliquot of urine (about 1 mL, weighed) was added directly to liquid scintillant prior to LSC. […] The radioactivity in each pooled sample was determined by LSC. […]

[4] = metabolite profiling in pooled feces (radioprofiling, LC‐MS); format: in vivo, human; conditions: pooled feces
Description: Total radioactivity concentrations of [^14C]‐pamiparib in whole blood, plasma, urine, and feces were determined by liquid scintillation counting (LSC). Radioactivity in each sample was measured for 5 minutes using a Packard Tri‐Carb liquid scintillation counter model 2100TR, 2900TR, or 3100TR (Canberra Packard, Pangbourne, Berks, Australia) with the facilities for computing quench‐corrected disintegrations per minute. Metabolite identification in plasma, urine, and feces was conducted by LC‐MS. Quantitation of the metabolites present in plasma, urine, and feces was based on the profiles of radioactivity. The limit of quantitation for radioactivity in plasma, urine, and feces was set at 1% of each chromatographic analysis (run) and 10 counts per minute (cpm) peak height; therefore, radioactive peaks that were <1% of the total run or <10 cpm peak height were reported as not detected. In addition, pamiparib and standards were reported, regardless of the percentage of run or peak height.
Portions of fecal homogenates (about 200‐500 mg) were subjected to combustion analysis prior to LSC. For metabolite profiling, feces samples collected 0‐24, 24‐48, 48‐72, 72‐96, and 96‐120 hours postdose were pooled by individual patient to generate 0‐ to 120‐hour pooled samples including 0.5% of each sample by weight. Feces were pooled per patient (if required) according to the appropriate 24‐hour collection period. The samples were homogenized in deionized water, avoiding excessive dilution (data on file). The radioactivity in each pooled sample was determined by LSC. The total amount of feces collected was factored into the recovery calculation. Approximately 1.6 to 2.7 g of each pooled feces sample was extracted twice with 6 mL of 0.1% formic acid in ACN. […] The combined supernatants were evaporated to dryness under nitrogen and reconstituted in 300 μL of MeOH. […] The reconstituted samples were analyzed by LC‐MS, with eluent fractions collected, and radiochemical profiles were generated based on radioactivity counts. […]

[5] = test system: Chinese hamster ovary cells; set-up: method as in data on file; conditions: in vitro chromosomal aberration assay, CHO cells; ref data on file; cited from earlier work
rat bone marrow = test system: rat bone marrow; set-up: method as in data on file; conditions: in vivo rat bone marrow micronucleus assay; ref data on file; cited from earlier work
[6] = set-up: method as in data on file; conditions: suspension in water, room temperature; ref data on file; cited from earlier work

In the case of `C[C@]12CCCN1CC1=NNC(=O)c3cc(F)cc4[nH]c2c1c34` [Pamiparib], the “geometric mean AUC0‐t of pamiparib (LC‐MS/MS) as percent of total radioactivity in plasma” value [1] is reported as about 69.9%, the “geometric mean AUC0‐∞ of pamiparib (LC‐MS/MS) as percent of total radioactivity in plasma” value [1] is reported as about 69.4% and the “geometric mean Cmax of pamiparib (LC‐MS/MS) as percent of total radioactivity in plasma” value [1] is reported as “≈ 91.6%”. For the same compound, the “AUC0‐∞ ratio plasma pamiparib/total radioactivity, geometric mean (CV%)” value ([1]; n = 4) was 0.694 (2.7), the “AUC0‐∞ ratio blood/plasma, geometric mean (CV%)” value [2] was “≈ 0.764; also recorded: ≈ 0.76” and the “administered radioactivity excreted in the feces” value ([3]; 192‐hour collection period) was 26.9% ± 6.8%. The “overall mean total recovery of radioactivity in urine and feces” value ([3]; 192‐hour collection period, mean ± SD, n = 4) was 84.7% ± 3.5%, the “mass balance achieved for all 4 subjects” value ([3]; individual subjects) was “higher than 80%” and the “dose quantified in feces” value [4] was 17.5 % of the dose. The clastogenic activity [5] was “clastogenic activity”, the clastogenic activity (rat bone marrow) was “clastogenic activity” and the “chemical stability and radiopurity of the suspension established for” value [6] was 48 h.
